Laboratory results reported in the supplement of paper PMC13380429.

Columns and labels:
Conditions in all cases: 72 h
Caco-2 [1] = test: cell viability relative to DMSO; higher = less toxic
Calu-3 [2] = test: as above
HepG2 [3] = test: as above
U2OS [4] = test: as above
Vero E6 [5] = test: as above
Caco-2 [6] = test: relative viability EC50 (midpoint between 100% and the lowest measured viability); higher = less toxic
Calu-3 [7] = test: as above
HepG2 [8] = test: as above
Vero E6 [9] = test: as above
Caco-2 [10] = test: drug sensitivity score (DSS) for viability; higher = more toxic; extreme values may be limits of the assay
Calu-3 [11] = test: as above
HepG2 [12] = test: as above
U2OS [13] = test: as above
Vero E6 [14] = test: as above

## CN(C)CCCC(=O)Nc1ccc(C(=O)Nc2cccc(Nc3ncc(Cl)c(-c4c[nH]c5ccccc45)n3)c2)cc1 [THZ1-R]
Caco-2 [1]; 1 nM
  cell viability: 92.2%
Caco-2 [1]; 10 nM
  cell viability: 98.6%
Caco-2 [1]; 100 nM
  cell viability: 94.5%
Caco-2 [1]; 1000 nM
  cell viability: 100%
Caco-2 [1]; 10000 nM
  cell viability: 77.9%
Calu-3 [2]; 1 nM
  cell viability: 97.6%
Calu-3 [2]; 10 nM
  cell viability: 103%
Calu-3 [2]; 100 nM
  cell viability: 106%
Calu-3 [2]; 1000 nM
  cell viability: 94.8%
Calu-3 [2]; 10000 nM
  cell viability: 79.7%
HepG2 [3]; 1 nM
  cell viability: 96%
HepG2 [3]; 10 nM
  cell viability: 91.4%
HepG2 [3]; 100 nM
  cell viability: 107%
HepG2 [3]; 1000 nM
  cell viability: 65.7%
HepG2 [3]; 10000 nM
  cell viability: 9.4%
U2OS [4]; 1 nM
  cell viability: 96.2%
U2OS [4]; 10 nM
  cell viability: 104%
U2OS [4]; 100 nM
  cell viability: 97.6%
U2OS [4]; 1000 nM
  cell viability: 102%
U2OS [4]; 10000 nM
  cell viability: 65.1%
Vero E6 [5]; 1 nM
  cell viability: 95.6%
Vero E6 [5]; 10 nM
  cell viability: 98%
Vero E6 [5]; 100 nM
  cell viability: 96.9%
Vero E6 [5]; 1000 nM
  cell viability: 93.4%
Vero E6 [5]; 10000 nM
  cell viability: 105%
Caco-2 [6]
  relative viability EC50: > 10 µM
Calu-3 [7]
  relative viability EC50: > 10 µM
HepG2 [8]
  relative viability EC50: 1.22 µM
Vero E6 [9]
  relative viability EC50: > 10 µM
Caco-2 [10]
  drug sensitivity score: 0.7
Calu-3 [11]
  drug sensitivity score: 1.3
HepG2 [12]
  drug sensitivity score: 9.7
U2OS [13]
  drug sensitivity score: 1.5
Vero E6 [14]
  drug sensitivity score: 0

## CCN(CC)CCOC(=O)C(c1ccccc1)c1ccccc1 [adiphenine]
Caco-2 [1]; 1 nM
  cell viability: 105%
Caco-2 [1]; 10 nM
  cell viability: 102%
Caco-2 [1]; 100 nM
  cell viability: 95.1%
Caco-2 [1]; 1000 nM
  cell viability: 98.3%
Caco-2 [1]; 10000 nM
  cell viability: 103%
Calu-3 [2]; 1 nM
  cell viability: 109%
Calu-3 [2]; 10 nM
  cell viability: 113%
Calu-3 [2]; 100 nM
  cell viability: 97%
Calu-3 [2]; 1000 nM
  cell viability: 104%
Calu-3 [2]; 10000 nM
  cell viability: 124%
HepG2 [3]; 1 nM
  cell viability: 103%
HepG2 [3]; 10 nM
  cell viability: 109%
HepG2 [3]; 100 nM
  cell viability: 106%
HepG2 [3]; 1000 nM
  cell viability: 113%
HepG2 [3]; 10000 nM
  cell viability: 99.1%
Vero E6 [5]; 1 nM
  cell viability: 111%
Vero E6 [5]; 10 nM
  cell viability: 116%
Vero E6 [5]; 100 nM
  cell viability: 105%
Vero E6 [5]; 1000 nM
  cell viability: 107%
Vero E6 [5]; 10000 nM
  cell viability: 99.2%
Caco-2 [6]
  relative viability EC50: > 10 µM
Calu-3 [7]
  relative viability EC50: > 10 µM
HepG2 [8]
  relative viability EC50: > 10 µM
Vero E6 [9]
  relative viability EC50: > 10 µM
Caco-2 [10]
  drug sensitivity score: 0
Calu-3 [11]
  drug sensitivity score: 0
HepG2 [12]
  drug sensitivity score: 0
Vero E6 [14]
  drug sensitivity score: 0

## O=c1[nH]cnc2c1cnn2[C@@H]1O[C@H](CO)[C@@H](O)[C@H]1O [allopurinol-riboside]
Caco-2 [1]; 1 nM
  cell viability: 97.7%
Caco-2 [1]; 10 nM
  cell viability: 98%
Caco-2 [1]; 100 nM
  cell viability: 111%
Caco-2 [1]; 1000 nM
  cell viability: 91.8%
Caco-2 [1]; 10000 nM
  cell viability: 101%
Calu-3 [2]; 1 nM
  cell viability: 102%
Calu-3 [2]; 10 nM
  cell viability: 90.7%
Calu-3 [2]; 100 nM
  cell viability: 103%
Calu-3 [2]; 1000 nM
  cell viability: 93.4%
Calu-3 [2]; 10000 nM
  cell viability: 98.1%
Vero E6 [5]; 1 nM
  cell viability: 102%
Vero E6 [5]; 10 nM
  cell viability: 100%
Vero E6 [5]; 100 nM
  cell viability: 98.2%
Vero E6 [5]; 1000 nM
  cell viability: 103%
Vero E6 [5]; 10000 nM
  cell viability: 102%
Caco-2 [6]
  relative viability EC50: > 10 µM
Calu-3 [7]
  relative viability EC50: > 10 µM
Vero E6 [9]
  relative viability EC50: > 10 µM
Caco-2 [10]
  drug sensitivity score: 0
Calu-3 [11]
  drug sensitivity score: 0
Vero E6 [14]
  drug sensitivity score: 0

## COc1cc(N)cn[n+]1-c1ccccc1 [amezinium]
Caco-2 [1]; 1 nM
  cell viability: 109%
Caco-2 [1]; 10 nM
  cell viability: 108%
Caco-2 [1]; 100 nM
  cell viability: 100%
Caco-2 [1]; 1000 nM
  cell viability: 110%
Caco-2 [1]; 10000 nM
  cell viability: 97.8%
Calu-3 [2]; 1 nM
  cell viability: 97.8%
Calu-3 [2]; 10 nM
  cell viability: 110%
Calu-3 [2]; 100 nM
  cell viability: 106%
Calu-3 [2]; 1000 nM
  cell viability: 89.9%
Calu-3 [2]; 10000 nM
  cell viability: 96.6%
Caco-2 [6]
  relative viability EC50: > 10 µM
Calu-3 [7]
  relative viability EC50: > 10 µM
Caco-2 [10]
  drug sensitivity score: 0
Calu-3 [11]
  drug sensitivity score: 0

## CC(C)(S)C(=O)N[C@@H](CS)C(=O)O [bucillamine]
Calu-3 [11]
  drug sensitivity score: 0
HepG2 [12]
  drug sensitivity score: 0
Vero E6 [14]
  drug sensitivity score: 0

## COc1cc2nccc(Oc3ccc(NC(=O)C4(C(=O)Nc5ccc(F)cc5)CC4)cc3)c2cc1OC [cabozantinib]
Caco-2 [1]; 1 nM
  cell viability: 93%
Caco-2 [1]; 10 nM
  cell viability: 97.4%
Caco-2 [1]; 100 nM
  cell viability: 96.7%
Caco-2 [1]; 1000 nM
  cell viability: 82%
Caco-2 [1]; 10000 nM
  cell viability: 35%
Calu-3 [2]; 1 nM
  cell viability: 94.2%
Calu-3 [2]; 10 nM
  cell viability: 109%
Calu-3 [2]; 100 nM
  cell viability: 100%
Calu-3 [2]; 1000 nM
  cell viability: 88.1%
Calu-3 [2]; 10000 nM
  cell viability: 39.2%
HepG2 [3]; 1 nM
  cell viability: 107%
HepG2 [3]; 10 nM
  cell viability: 92.6%
HepG2 [3]; 100 nM
  cell viability: 97.1%
HepG2 [3]; 1000 nM
  cell viability: 98.9%
HepG2 [3]; 10000 nM
  cell viability: 44.4%
U2OS [4]; 1 nM
  cell viability: 103%
U2OS [4]; 10 nM
  cell viability: 104%
U2OS [4]; 100 nM
  cell viability: 99%
U2OS [4]; 1000 nM
  cell viability: 98.3%
U2OS [4]; 10000 nM
  cell viability: 50.1%
Vero E6 [5]; 1 nM
  cell viability: 101%
Vero E6 [5]; 10 nM
  cell viability: 98%
Vero E6 [5]; 100 nM
  cell viability: 97.2%
Vero E6 [5]; 1000 nM
  cell viability: 99.3%
Vero E6 [5]; 10000 nM
  cell viability: 48%
Caco-2 [6]
  relative viability EC50: 1.47 µM
Calu-3 [7]
  relative viability EC50: 1.75 µM
HepG2 [8]
  relative viability EC50: 3.02 µM
Vero E6 [9]
  relative viability EC50: 3.07 µM
Caco-2 [10]
  drug sensitivity score: 6.3
Calu-3 [11]
  drug sensitivity score: 5.3
HepG2 [12]
  drug sensitivity score: 3.1
U2OS [13]
  drug sensitivity score: 2.8
Vero E6 [14]
  drug sensitivity score: 2.8

## COc1cc2c(cc1OC)C(=O)C(CC1CCN(Cc3ccccc3)CC1)C2 (configuration not stated) [donepezil]
Caco-2 [1]; 1 nM
  cell viability: 103%
Caco-2 [1]; 10 nM
  cell viability: 102%
Caco-2 [1]; 100 nM
  cell viability: 104%
Caco-2 [1]; 1000 nM
  cell viability: 91.4%
Caco-2 [1]; 10000 nM
  cell viability: 96.4%
Calu-3 [2]; 1 nM
  cell viability: 91.9%
Calu-3 [2]; 10 nM
  cell viability: 92.4%
Calu-3 [2]; 100 nM
  cell viability: 96%
Calu-3 [2]; 1000 nM
  cell viability: 92%
Calu-3 [2]; 10000 nM
  cell viability: 94.1%
HepG2 [3]; 1 nM
  cell viability: 114%
HepG2 [3]; 10 nM
  cell viability: 106%
HepG2 [3]; 100 nM
  cell viability: 98.8%
HepG2 [3]; 1000 nM
  cell viability: 102%
HepG2 [3]; 10000 nM
  cell viability: 91.2%
Caco-2 [6]
  relative viability EC50: > 10 µM
Calu-3 [7]
  relative viability EC50: > 10 µM
HepG2 [8]
  relative viability EC50: > 10 µM
Vero E6 [9]
  relative viability EC50: > 10 µM
Caco-2 [10]
  drug sensitivity score: 0
Calu-3 [11]
  drug sensitivity score: 0
HepG2 [12]
  drug sensitivity score: 0
Vero E6 [14]
  drug sensitivity score: 0.3

## Cn1c(=O)c2c(ncn2CC2OCCO2)n(C)c1=O [doxofylline]
Calu-3 [11]
  drug sensitivity score: 0
HepG2 [12]
  drug sensitivity score: 1.3
U2OS [13]
  drug sensitivity score: 0
Vero E6 [14]
  drug sensitivity score: 0

## CN1CCc2nc(C(=O)N[C@@H]3C[C@@H](C(=O)N(C)C)CC[C@@H]3NC(=O)C(=O)Nc3ccc(Cl)cn3)sc2C1 [edoxaban]
Caco-2 [1]; 1 nM
  cell viability: 92.4%
Caco-2 [1]; 10 nM
  cell viability: 102%
Caco-2 [1]; 100 nM
  cell viability: 94.4%
Caco-2 [1]; 1000 nM
  cell viability: 101%
Caco-2 [1]; 10000 nM
  cell viability: 107%
Calu-3 [2]; 1 nM
  cell viability: 97.6%
Calu-3 [2]; 10 nM
  cell viability: 96.4%
Calu-3 [2]; 100 nM
  cell viability: 92.8%
Calu-3 [2]; 1000 nM
  cell viability: 98.3%
Calu-3 [2]; 10000 nM
  cell viability: 105%
HepG2 [3]; 1 nM
  cell viability: 106%
HepG2 [3]; 10 nM
  cell viability: 94.9%
HepG2 [3]; 100 nM
  cell viability: 106%
HepG2 [3]; 1000 nM
  cell viability: 96.4%
HepG2 [3]; 10000 nM
  cell viability: 101%
Vero E6 [5]; 1 nM
  cell viability: 99.5%
Vero E6 [5]; 10 nM
  cell viability: 96%
Vero E6 [5]; 100 nM
  cell viability: 94.8%
Vero E6 [5]; 1000 nM
  cell viability: 92.7%
Vero E6 [5]; 10000 nM
  cell viability: 104%
Caco-2 [6]
  relative viability EC50: > 10 µM
Calu-3 [7]
  relative viability EC50: > 10 µM
HepG2 [8]
  relative viability EC50: > 10 µM
Vero E6 [9]
  relative viability EC50: > 10 µM
Caco-2 [10]
  drug sensitivity score: 0
Calu-3 [11]
  drug sensitivity score: 0
HepG2 [12]
  drug sensitivity score: 0
Vero E6 [14]
  drug sensitivity score: 0

## CCn1cc(C(=O)O)c(=O)c2cc(F)c(N3CCNCC3)nc21 [enoxacin]
Caco-2 [1]; 1 nM
  cell viability: 105%
Caco-2 [1]; 10 nM
  cell viability: 105%
Caco-2 [1]; 100 nM
  cell viability: 103%
Caco-2 [1]; 1000 nM
  cell viability: 99.2%
Caco-2 [1]; 10000 nM
  cell viability: 99.6%
Calu-3 [2]; 1 nM
  cell viability: 97.7%
Calu-3 [2]; 10 nM
  cell viability: 103%
Calu-3 [2]; 100 nM
  cell viability: 106%
Calu-3 [2]; 1000 nM
  cell viability: 105%
Calu-3 [2]; 10000 nM
  cell viability: 107%
HepG2 [3]; 1 nM
  cell viability: 105%
HepG2 [3]; 10 nM
  cell viability: 105%
HepG2 [3]; 100 nM
  cell viability: 99.8%
HepG2 [3]; 1000 nM
  cell viability: 96%
HepG2 [3]; 10000 nM
  cell viability: 97.6%
Vero E6 [5]; 1 nM
  cell viability: 101%
Vero E6 [5]; 10 nM
  cell viability: 110%
Vero E6 [5]; 100 nM
  cell viability: 103%
Vero E6 [5]; 1000 nM
  cell viability: 103%
Vero E6 [5]; 10000 nM
  cell viability: 97.6%
Caco-2 [6]
  relative viability EC50: > 10 µM
Calu-3 [7]
  relative viability EC50: > 10 µM
HepG2 [8]
  relative viability EC50: > 10 µM
Vero E6 [9]
  relative viability EC50: > 10 µM
Caco-2 [10]
  drug sensitivity score: 0
Calu-3 [11]
  drug sensitivity score: 0
HepG2 [12]
  drug sensitivity score: 0
Vero E6 [14]
  drug sensitivity score: 0
